The source of these data is ChEMBL document CHEMBL5291721, “A preclinical secondary pharmacology resource illuminates target-adverse drug reaction associations of marketed drugs” (Nat Commun, 2023).

Experiment [1] has as its target T1, Alpha-1A adrenergic receptor (Homo sapiens, UniProt P35348).
T1 sequence (P35348 whole entry): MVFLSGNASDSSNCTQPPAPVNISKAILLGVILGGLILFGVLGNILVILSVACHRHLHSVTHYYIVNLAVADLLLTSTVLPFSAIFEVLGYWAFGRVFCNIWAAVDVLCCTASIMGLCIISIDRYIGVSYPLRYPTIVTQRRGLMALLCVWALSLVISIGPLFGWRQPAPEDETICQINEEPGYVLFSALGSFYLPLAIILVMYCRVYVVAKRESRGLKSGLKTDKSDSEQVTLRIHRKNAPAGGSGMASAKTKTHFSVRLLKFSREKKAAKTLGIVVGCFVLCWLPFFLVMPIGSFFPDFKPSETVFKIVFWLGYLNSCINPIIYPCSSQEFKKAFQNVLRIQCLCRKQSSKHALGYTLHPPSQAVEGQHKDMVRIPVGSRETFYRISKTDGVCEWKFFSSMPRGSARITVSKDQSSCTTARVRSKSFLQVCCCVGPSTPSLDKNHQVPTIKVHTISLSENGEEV
The format is functional, cell-based.

Experiment [2] concerns the target T2, 5-hydroxytryptamine receptor 3A (Homo sapiens, UniProt P46098).
T2 sequence (P46098 whole entry): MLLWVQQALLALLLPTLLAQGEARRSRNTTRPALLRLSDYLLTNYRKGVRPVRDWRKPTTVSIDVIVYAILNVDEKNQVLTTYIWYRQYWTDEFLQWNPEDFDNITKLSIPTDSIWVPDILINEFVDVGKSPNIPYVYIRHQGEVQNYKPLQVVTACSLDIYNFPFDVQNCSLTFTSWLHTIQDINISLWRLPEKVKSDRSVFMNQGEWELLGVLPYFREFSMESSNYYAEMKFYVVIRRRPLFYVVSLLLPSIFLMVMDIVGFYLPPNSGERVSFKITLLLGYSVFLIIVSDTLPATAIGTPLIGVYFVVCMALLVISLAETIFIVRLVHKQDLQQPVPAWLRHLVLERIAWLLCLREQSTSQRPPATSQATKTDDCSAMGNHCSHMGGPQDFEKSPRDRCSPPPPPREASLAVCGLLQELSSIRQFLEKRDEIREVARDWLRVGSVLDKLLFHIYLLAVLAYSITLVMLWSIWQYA
Format: functional.

Another experiment concerns the target Adenosine receptor A2a (Homo sapiens, UniProt P29274).
Experiment [3] addresses T3, Equilibrative nucleoside transporter 1 (Homo sapiens, UniProt Q99808).
T3 sequence (Q99808 whole entry): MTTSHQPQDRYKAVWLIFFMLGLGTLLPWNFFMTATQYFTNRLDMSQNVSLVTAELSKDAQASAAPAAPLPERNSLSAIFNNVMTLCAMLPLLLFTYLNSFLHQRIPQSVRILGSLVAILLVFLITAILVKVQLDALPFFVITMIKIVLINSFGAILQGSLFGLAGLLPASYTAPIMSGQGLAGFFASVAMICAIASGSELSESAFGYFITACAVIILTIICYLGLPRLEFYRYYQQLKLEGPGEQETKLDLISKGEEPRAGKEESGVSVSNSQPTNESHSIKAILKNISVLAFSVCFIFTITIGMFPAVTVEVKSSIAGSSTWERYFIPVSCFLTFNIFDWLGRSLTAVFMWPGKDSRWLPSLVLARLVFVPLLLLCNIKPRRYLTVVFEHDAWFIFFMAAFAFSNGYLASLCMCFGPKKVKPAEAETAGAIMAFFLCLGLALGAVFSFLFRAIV

Experiment [4] addresses Sodium-dependent noradrenaline transporter (Homo sapiens, UniProt P23975).
The target of experiment [5] is T4, Type-1 angiotensin II receptor (Homo sapiens, UniProt P30556).
T4 sequence (P30556 whole entry): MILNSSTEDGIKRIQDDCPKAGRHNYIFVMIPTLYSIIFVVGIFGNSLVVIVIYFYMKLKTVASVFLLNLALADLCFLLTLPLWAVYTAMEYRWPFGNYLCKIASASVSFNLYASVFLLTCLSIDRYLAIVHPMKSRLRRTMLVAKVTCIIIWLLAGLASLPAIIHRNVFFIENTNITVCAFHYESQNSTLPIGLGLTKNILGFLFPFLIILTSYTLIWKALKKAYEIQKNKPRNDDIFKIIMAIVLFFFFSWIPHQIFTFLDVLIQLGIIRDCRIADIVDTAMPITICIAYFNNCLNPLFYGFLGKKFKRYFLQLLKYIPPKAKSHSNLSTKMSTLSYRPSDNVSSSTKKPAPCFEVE

The target of experiment [6] is Voltage-gated inwardly rectifying potassium channel KCNH2 (Homo sapiens, UniProt Q12809). Format: functional. Particulars: read-out: AC50.
The target in experiment [7] is Gamma-aminobutyric acid receptor subunit alpha-1 (Rattus norvegicus, UniProt P62813).
The target of the next experiment is T5, Estrogen receptor (Homo sapiens, UniProt P03372).
T5 sequence (P03372 whole entry): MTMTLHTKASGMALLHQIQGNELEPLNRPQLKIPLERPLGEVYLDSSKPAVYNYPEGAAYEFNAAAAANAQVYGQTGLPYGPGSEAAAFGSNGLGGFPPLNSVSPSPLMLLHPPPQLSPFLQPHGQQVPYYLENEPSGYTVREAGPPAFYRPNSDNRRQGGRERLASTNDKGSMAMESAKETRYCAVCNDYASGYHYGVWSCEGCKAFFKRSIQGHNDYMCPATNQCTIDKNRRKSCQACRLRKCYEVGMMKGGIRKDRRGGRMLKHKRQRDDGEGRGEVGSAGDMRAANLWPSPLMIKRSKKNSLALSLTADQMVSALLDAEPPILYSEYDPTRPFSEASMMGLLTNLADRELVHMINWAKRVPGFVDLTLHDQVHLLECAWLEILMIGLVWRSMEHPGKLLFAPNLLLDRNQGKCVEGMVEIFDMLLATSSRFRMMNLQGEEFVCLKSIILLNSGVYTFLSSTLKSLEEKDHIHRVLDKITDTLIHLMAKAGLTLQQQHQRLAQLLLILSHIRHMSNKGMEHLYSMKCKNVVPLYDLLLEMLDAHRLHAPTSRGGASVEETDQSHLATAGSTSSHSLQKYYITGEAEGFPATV
Also: assay procedure not described here.

Adenosine receptor A2a, sequence (P29274 whole entry): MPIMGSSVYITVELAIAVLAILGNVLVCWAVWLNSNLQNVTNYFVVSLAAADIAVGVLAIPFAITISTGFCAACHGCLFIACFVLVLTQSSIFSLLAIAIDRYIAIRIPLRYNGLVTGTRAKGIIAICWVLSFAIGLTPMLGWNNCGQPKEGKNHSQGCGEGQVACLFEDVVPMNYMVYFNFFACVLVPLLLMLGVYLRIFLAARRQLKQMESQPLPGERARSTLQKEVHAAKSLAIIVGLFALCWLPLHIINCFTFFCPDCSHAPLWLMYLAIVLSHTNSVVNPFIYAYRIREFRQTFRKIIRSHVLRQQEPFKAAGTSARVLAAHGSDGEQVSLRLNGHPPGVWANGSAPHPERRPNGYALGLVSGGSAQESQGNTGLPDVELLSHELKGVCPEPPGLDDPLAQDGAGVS
Voltage-gated inwardly rectifying potassium channel KCNH2, sequence (Q12809 whole entry): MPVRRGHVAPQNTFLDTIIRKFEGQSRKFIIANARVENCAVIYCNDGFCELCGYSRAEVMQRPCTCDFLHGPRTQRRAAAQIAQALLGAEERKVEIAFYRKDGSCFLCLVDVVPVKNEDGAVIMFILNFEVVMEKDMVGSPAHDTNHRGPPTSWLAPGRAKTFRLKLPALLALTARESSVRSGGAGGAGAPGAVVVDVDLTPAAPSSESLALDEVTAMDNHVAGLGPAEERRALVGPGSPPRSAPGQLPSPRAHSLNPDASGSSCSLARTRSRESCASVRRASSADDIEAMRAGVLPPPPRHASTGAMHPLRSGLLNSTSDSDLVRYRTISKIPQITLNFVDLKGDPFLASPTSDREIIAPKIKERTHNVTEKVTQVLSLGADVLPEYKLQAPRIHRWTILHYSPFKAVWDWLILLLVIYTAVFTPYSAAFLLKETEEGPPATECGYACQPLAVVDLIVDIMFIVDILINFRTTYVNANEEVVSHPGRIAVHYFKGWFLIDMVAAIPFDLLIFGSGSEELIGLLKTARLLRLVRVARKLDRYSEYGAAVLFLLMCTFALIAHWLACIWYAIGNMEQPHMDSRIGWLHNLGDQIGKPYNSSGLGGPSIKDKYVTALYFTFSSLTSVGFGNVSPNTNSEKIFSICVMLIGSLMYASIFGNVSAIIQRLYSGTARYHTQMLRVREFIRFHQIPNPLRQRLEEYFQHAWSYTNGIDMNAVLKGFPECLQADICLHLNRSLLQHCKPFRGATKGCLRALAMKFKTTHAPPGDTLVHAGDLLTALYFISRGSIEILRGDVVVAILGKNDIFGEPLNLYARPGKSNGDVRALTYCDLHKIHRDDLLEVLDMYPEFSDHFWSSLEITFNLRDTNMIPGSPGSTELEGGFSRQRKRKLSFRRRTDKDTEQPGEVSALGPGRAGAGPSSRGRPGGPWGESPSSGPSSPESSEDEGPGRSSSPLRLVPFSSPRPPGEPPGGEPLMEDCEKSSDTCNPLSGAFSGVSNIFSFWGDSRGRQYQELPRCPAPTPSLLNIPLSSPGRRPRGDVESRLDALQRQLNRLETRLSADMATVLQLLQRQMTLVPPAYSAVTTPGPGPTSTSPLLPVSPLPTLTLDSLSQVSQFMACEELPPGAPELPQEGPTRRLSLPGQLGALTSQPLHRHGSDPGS
Gamma-aminobutyric acid receptor subunit alpha-1, sequence (P62813 whole entry): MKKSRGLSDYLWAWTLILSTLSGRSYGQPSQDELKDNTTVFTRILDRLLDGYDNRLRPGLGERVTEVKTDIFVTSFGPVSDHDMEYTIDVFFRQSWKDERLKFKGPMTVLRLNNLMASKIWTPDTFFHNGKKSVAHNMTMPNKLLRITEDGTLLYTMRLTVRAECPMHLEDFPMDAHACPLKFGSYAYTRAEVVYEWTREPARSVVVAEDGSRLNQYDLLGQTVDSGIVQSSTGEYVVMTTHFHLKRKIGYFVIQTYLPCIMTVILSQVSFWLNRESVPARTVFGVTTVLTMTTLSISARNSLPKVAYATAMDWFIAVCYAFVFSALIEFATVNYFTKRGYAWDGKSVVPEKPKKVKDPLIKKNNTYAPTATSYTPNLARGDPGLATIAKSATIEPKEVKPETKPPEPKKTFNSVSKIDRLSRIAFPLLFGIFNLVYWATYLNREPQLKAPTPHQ
Sodium-dependent noradrenaline transporter, sequence (P23975 whole entry): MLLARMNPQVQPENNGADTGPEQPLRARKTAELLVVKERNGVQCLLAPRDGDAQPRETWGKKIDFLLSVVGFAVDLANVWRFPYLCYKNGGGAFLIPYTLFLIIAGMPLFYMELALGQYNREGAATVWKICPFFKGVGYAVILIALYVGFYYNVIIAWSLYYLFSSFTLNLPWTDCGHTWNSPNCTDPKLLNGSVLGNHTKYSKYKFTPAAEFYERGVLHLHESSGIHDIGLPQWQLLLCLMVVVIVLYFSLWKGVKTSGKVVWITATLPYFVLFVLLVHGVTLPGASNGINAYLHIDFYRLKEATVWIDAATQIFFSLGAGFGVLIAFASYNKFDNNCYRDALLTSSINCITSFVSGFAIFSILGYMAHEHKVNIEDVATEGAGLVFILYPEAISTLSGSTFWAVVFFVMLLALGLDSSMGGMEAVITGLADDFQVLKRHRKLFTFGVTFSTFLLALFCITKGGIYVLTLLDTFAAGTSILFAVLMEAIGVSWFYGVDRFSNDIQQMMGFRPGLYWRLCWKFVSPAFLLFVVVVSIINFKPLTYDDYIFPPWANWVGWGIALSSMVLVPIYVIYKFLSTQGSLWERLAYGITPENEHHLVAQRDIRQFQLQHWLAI

For orientation: AC50 means the midpoint of the concentration-response curve, whichever way the signal moves. Turning to `CCN(CC)C(=O)C1CN2CCc3cc(OC)c(OC)cc3C2CC1OC(C)=O` (stereo unspecified) [BENZQUINAMIDE], the AC50 (in experiment [1]; in experiment [2]; at Adenosine receptor A2a; in experiment [3]; in experiment [4]; in experiment [5]) was above 30 µM throughout. Also, the AC50 (in experiment [6]; in experiment [7]; at Estrogen receptor) was above 30 µM each time.

Turning to `CCC(=O)OCC(=O)[C@@]1(OC(=O)CC)[C@@H](C)C[C@H]2[C@@H]3CCC4=CC(=O)C=C[C@]4(C)[C@@]3(F)[C@@H](O)C[C@@]21C` [BETAMETHASONE DIPROPIONATE], the AC50 (in [1]; in experiment [2]; on Adenosine receptor A2a; in [3]; in experiment [4]; in [5]) was above 30 µM throughout. Further, the values for the concentration at half-maximal activity (AC50) (in experiment [6]; in experiment [7]; on Estrogen receptor) were above 30 µM, above 30 µM and above 10 µM, respectively.

Turning to `CCOC(=O)NNc1ccc(N(CC)CC(C)O)nn1` (stereo unspecified) [CADRALAZINE], the half-maximal activity concentration (AC50) (in experiment [1]; in [2]; at Adenosine receptor A2a; in [3]; in experiment [4]; in experiment [5]) was above 30 µM each time. The half-maximal activity concentration (AC50) (in [6]; in experiment [7]; on Estrogen receptor) was above 30 µM throughout.

For `CCCC(C)(COC(N)=O)COC(=O)NC(C)C` (stereo unspecified) [CARISOPRODOL], the concentration at half-maximal activity (AC50) in experiment [1] is above 30 µM; in experiment [2], above 30 µM; at Adenosine receptor A2a it was above 30 µM; in experiment [3], above 30 µM; in experiment [4], above 10 µM; in [5], above 30 µM. In addition, the AC50 in experiment [6] is above 30 µM; in experiment [7] it was above 10 µM; at Estrogen receptor, above 30 µM.

Regarding `CO[C@@]1(NC(=O)Cc2cccs2)C(=O)N2C(C(=O)O)=C(COC(N)=O)CS[C@@H]21` [CEFOXITIN], the concentration at half-maximal activity (AC50) (in experiment [1]; in [2]; at Adenosine receptor A2a; in experiment [3]; in experiment [4]; in [5]) was above 30 µM in each case. In addition, the AC50 in experiment [6] was above 30 µM; in experiment [7] it was above 10 µM; at Estrogen receptor it was above 30 µM.

Take `CCC(C)(Oc1ccc(C2(c3ccc(OC(C)(CC)C(=O)O)cc3)CCCCC2)cc1)C(=O)O` (stereo unspecified) [CLINOFIBRATE]: the concentration at half-maximal activity (AC50) (in [1]; in [2]; on Adenosine receptor A2a; in experiment [3]; in [4]; in [5]) was above 30 µM throughout. The AC50 (in [6]; in experiment [7]; on Estrogen receptor) was above 30 µM in each case.

With `CCCCC[C@H](O)/C=C/[C@H]1[C@H](O)CC(=O)[C@@H]1C/C=C\CCCC(=O)O` [DINOPROSTONE], the AC50 (in experiment [1]; in experiment [2]; on Adenosine receptor A2a; in experiment [3]; in [4]; in [5]) was above 30 µM throughout. Moreover, the values for the AC50 (in experiment [6]; in [7]; on Estrogen receptor) were above 30 µM, above 30 µM and 23 µM, respectively.

On to `CC(C)c1cc2c(cc1S(=O)(=O)O)[C@@]1(C)CCC[C@@](C)(C(=O)O)[C@@H]1CC2` [ECABET], for which the AC50 (in experiment [1]; in experiment [2]; at Adenosine receptor A2a; in [3]; in experiment [4]; in experiment [5]) was above 30 µM in each case. Also, the concentration at half-maximal activity (AC50) (in experiment [6]; in [7]; on Estrogen receptor) was above 30 µM in each case.

Take `Clc1ccc2c(c1)C(c1ccccc1)=NCc1nncn1-2` [ESTAZOLAM]: the AC50 (in experiment [1]; in experiment [2]; on Adenosine receptor A2a; in experiment [3]; in experiment [4]; in experiment [5]) was above 30 µM each time. In addition, the AC50 in [6] is above 30 µM; in [7], above 10 µM; on Estrogen receptor it was above 30 µM.

With `CCCN(CC)C(CC)C(=O)Nc1c(C)cccc1C` (stereo unspecified) [ETIDOCAINE], the AC50 (in experiment [1]; in [2]; on Adenosine receptor A2a; in experiment [3]; in experiment [4]; in experiment [5]) was above 30 µM each time. In addition, the half-maximal activity concentration (AC50) (in experiment [6]; in [7]; at Estrogen receptor) was above 30 µM throughout.

As to `CC(=O)OCC(CCn1cnc2cnc(N)nc21)COC(C)=O` [FAMCICLOVIR], the AC50 in [1] was above 30 µM; in experiment [2], above 30 µM; at Adenosine receptor A2a, above 30 µM; in [3], above 30 µM; in experiment [4], above 10 µM; in experiment [5] it was above 30 µM. The AC50 was above 30 µM in experiment [6], above 10 µM in experiment [7] and above 30 µM at Estrogen receptor.

For the compound `Nc1nc(F)nc2c1ncn2[C@@H]1O[C@H](COP(=O)(O)O)[C@@H](O)[C@@H]1O` [FLUDARABINE PHOSPHATE], the AC50 (in [1]; in [2]; on Adenosine receptor A2a; in experiment [3]; in experiment [4]; in experiment [5]) was above 30 µM throughout. Also, the AC50 (in experiment [6]; in experiment [7]; on Estrogen receptor) was above 30 µM each time.

With `O=C(O)c1ccccc1Nc1cccc(C(F)(F)F)c1` [FLUFENAMIC ACID], the AC50 (in experiment [1]; in experiment [2]; on Adenosine receptor A2a; in [3]; in experiment [4]; in experiment [5]) was above 30 µM in each case. For the same compound, the concentration at half-maximal activity (AC50) was above 30 µM in [6], above 10 µM in experiment [7] and above 30 µM at Estrogen receptor.

As for `CCCCCCOC(=O)CCC(=O)CN` [HEXAMINOLEVULINATE], the AC50 (in [1]; in experiment [2]; at Adenosine receptor A2a; in experiment [3]; in experiment [4]; in experiment [5]) was above 30 µM throughout. Moreover, the AC50 (in experiment [6]; in [7]; on Estrogen receptor) was above 30 µM each time.
